According to patent US7550469B2, “Heterocyclic amide derivatives and their use as dopamine D3 receptor ligands” (Aventis Pharmaceuticals Inc., priority 2001, dated 2009):

target: Alpha-1 adrenergic receptors from rat brain cortex; assay: [3H]Prazosin binding to alpha-1 adrenergic receptors from rat brain cortex (Protocol 4); conditions: r = rat; piperazines (n = 1) vs homopiperazines (n = 2); read-out: r-α1 Ki
Text: [^3H]Prazosin Binding to Alpha-1 Adrenergic Receptors from Rat Brain Cortex
Objective: This in vitro assay is designed as a screen to identify compounds displaying a affinity for the a, adrenoceptor subtype in membranes from rat cortex. It measures the ability of the test compounds to displace [^3H]prazosin from the α1 sites.
Membrane Preparation: Rat brain tissue can be obtained from either fresh (male Wistar rats; 200-250 g) or frozen (male Sprague-Dawley 200-250 g from Harlan; cat. #BT-403) stocks. The cortex is dissected, homogenized in 50 vol (wet weight) ice-cold 50 mM Tris buffer (pH 7.7 at 25° C.). The homogenate is centrifuged at 48,000 g for 10 min, the pellet is resuspended in 50 mM Tris buffer and centrifuged a second time. The second pellet (P2) is resuspended to yield a concentration of 115 mg wet weight per 10 ml. […] Membranes should be mixed just before addition to ensure an even suspension. […] This is diluted to a 0.5 mM stock in dH2O. Serial dilutions in Buffer A are made from which 50 μl additions to the plate are made in duplicate in order to achieve the final concentrations desired. Typically, one 96 well plate is used to evaluate 11 compounds at 4 concentrations (10^−6-10^−9 M) in duplicate. Total binding and nonspecific binding are determined in quadruplicate. Usually one standard is run with each assay. • [^3H]Prazosin is made up in Buffer A such that when 50 μl are added per well the final concentration is […] in a final assay volume of 200 μl. The final concentration should be verified by running a sample in a scintillation counter prior to adding the [^3H]prazosin to the 96 well plate. Note: The radioactivity should be prepared just before the additions are made so that it is not allowed to sit on the bench for very long. • Packard GF/B Plate Pretreatment: The filter plates are presoaked for at least 30 min in ice cold Buffer B containing 0.05% polyethyleneimine (200 μl/200 ml) to maximize filtration efficiency and minimize filter blank binding. • Incubation & Filtration: Once buffer, compounds, [^3H]prazosin and membrane have been added (and mixed), the 96 well plates are incubated for 40 min at 37° C. and spaced 3-5 min apart. At 40 min, the plates are filtered using a Tomtec Automated Cell Harvester. Filtration is immediately followed by washes of ice cold Buffer B (total vol. ˜7 ml). • Drying and Counting: Each filter plate is dried under a heat lamp for 15 min. The back of the plate is sealed and 40 μl of Packard microscint fluid are added per well. Using Packard film, each plate is heat sealed prior to being counted in a Packard Topcount Scintillation counter. A program has been written that counts each plate twice sending DPM, CPM and TSIS data to disk and printer. • Analysis of Results: Raw DPM and CPM data are captured on disk and are imported into one of several software packages (Graphpad Prism Ver 2.0, Excel) residing on the LAN. Specific binding is defined as the difference between total binding and the binding in the presence of 10 μM phentolamine. Total binding is less than 10% of the total added ligand. Software using one-site competition curve analysis is employed in the calculation of IC50 and KI (Cheng-Prusoff equation, 1973). The top and bottom of the non-linear regression are held constant at 0% and 100% inhibition. The percent inhibition at each drug concentration is the mean of duplicate determinations.

| Ki [nM] | Structure (SMILES) |
| --- | --- |
| 5 | O=C(NCCCCN1CCN(c2csc3cc(F)ccc23)CC1)c1cc2ccccc2s1 [compound 811614] |
| 25.2 | O=C(NCCCCN1CCN(c2csc3cc(F)ccc23)CC1)c1cc2ccccc2[nH]1 [compound 813373] |
| 5 | O=C(NCCCCN1CCN(c2csc3cc(F)ccc23)CC1)c1ccc2[nH]ccc2c1 [compound 814018] |
| 12 | O=C(NCCCCN1CCN(c2csc3cc(F)ccc23)CC1)c1c[nH]c2ccccc12 [compound 814026] |

same assay, conditions: rat α-1; read-out: rat alpha 1 Ki

| Structure (SMILES) | Ki [nM] |
| --- | --- |
| O=C(NCCCCN1CCN(c2csc3cc(F)ccc23)CC1)c1cc2ccccc2s1 [compound 811614] | 5 |
| CCCCOc1ccc(C(=O)NCCCCN2CCN(c3csc4cc(F)ccc34)CC2)cc1 [compound 813376] | 10.9 |
| O=C(NCCCCN1CCN(c2csc3cc(F)ccc23)CC1)c1ccc2c(c1)OCO2 [compound 813375] | 2.6 |
| O=C(NCCCCN1CCN(c2csc3cc(F)ccc23)CC1)c1c(F)cccc1F [compound 813918] | 4 |

Other lines, results leading:

| Ki [nM] | Structure (SMILES) |
| --- | --- |
| 3 | CCOc1ccc(C(=O)NCCCCN2CCN(c3csc4cc(F)ccc34)CC2)cc1 [compound 813914] |
| 32.3 | O=C(NCCCCN1CCN(c2csc3cc(F)ccc23)CC1)c1ccc(Br)cc1 [compound 813381] |
| 7 | O=C(NCCCCN1CCN(c2csc3cc(F)ccc23)CC1)c1ccc(Cl)cc1 [compound 813754] |

target: T1, cloned human alpha-1A adrenergic receptors (α1a) (Homo sapiens, UniProt P35348); assay: [3H]Prazosin binding to cloned human alpha-1A adrenergic receptors expressed in CHO cells; conditions: human α-1; 6-fluoro vs 6-trifluoromethyl benzo[b]thiophene pairs; read-out: halpha 1 Ki (nM) h = human
T1 construct: expressed in transfected cells; host or cells: CHO cells, G418-resistant clone, pcDNA3 vector; membrane fragments
T1 sequence (P35348 1-466): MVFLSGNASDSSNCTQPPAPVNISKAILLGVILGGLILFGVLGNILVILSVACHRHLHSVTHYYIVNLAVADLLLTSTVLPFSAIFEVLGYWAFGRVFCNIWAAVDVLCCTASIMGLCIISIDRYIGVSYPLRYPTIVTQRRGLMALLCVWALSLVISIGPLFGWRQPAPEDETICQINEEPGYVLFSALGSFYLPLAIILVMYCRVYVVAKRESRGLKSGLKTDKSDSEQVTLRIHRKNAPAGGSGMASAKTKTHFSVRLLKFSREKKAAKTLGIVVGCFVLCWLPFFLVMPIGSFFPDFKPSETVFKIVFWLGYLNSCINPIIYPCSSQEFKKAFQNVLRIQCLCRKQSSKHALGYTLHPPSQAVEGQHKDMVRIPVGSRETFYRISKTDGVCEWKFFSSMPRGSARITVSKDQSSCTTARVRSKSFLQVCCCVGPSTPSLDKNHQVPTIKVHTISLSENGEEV
Text: ^3H]PRAZOSIN BINDING TO CLONED HUMAN ALPHA-1A ADRENERGIC RECEPTORS (α1a) EXPRESSED IN CHINESE HAMSTER OVARY CELLS (CHO)
Purpose: This in vitro assay is designed as a screen to identify compounds displaying a affinity for the human α1a adrenoceptor subtype expressed in the membrane fragments of CHO cells. The assay measures the ability of the test compounds to displace [^3H] prazosin from α1a sites. • The identification of multiple vascular α1-addrenoceptors (α1a, α1b, α1d) in vitro has provided impetus to define the role(s) of these subtypes in cardiovascular regulation in vivo (Vargas and Gorman, 1995). […] Prazosin is a potent antagonist of the human α1a-adrenoceptor subtype, which has been cloned and is expressed in the membrane fragments of CHO cells. hα1a Receptor: The cloning of the human α1a cDNA was accomplished first by screening a human prostate cDNA library (Clontech), from which a portion of the coding region was obtained. This DNA fragment was then used to screen a human leukocyte genomic library (Clontech), and the rest of the coding sequence was obtained. Later these two fragments were spliced together. The entire coding sequence was then fully sequenced including matching PCR sequence with original genomic coding sequence, thus ensuring splice sites were joined correctly (Schwinn et al., 1995). Once sequenced, the gene was subcloned into the expression vector pcDNA3 (Invitrogen). Plasmid DNA was then used for transfection into CHO cells and G418 resistant clones were isolated. A clone expressing high levels of the hα1a receptor (as determined by mRNA and receptor binding data) was chosen and pharmacologically characterized. Culture Media: Media Ingredients for Adherent α1a expressing CHO Culture: • A. HAM's F-12 (Cellgro) • B. 10% 0.2 micron filtered Fetal Bovine Serum (FBS)(Cellgro) • C. 1% 0.2 micron filtered Penicillin-Streptomycin (Celigro) • D. G418 0.2 micron filtered (Geneticin 400 μg/ml)(Cellgro) • Cells are cultured using established methods and procedures in either 150×25 mm culture plates (scale up to 100 plates) or a combination of these plates and 70 roller bottles. One culturing/harvest cycle typically requires 2 weeks and yields between 100-400 mg protein. Plates or bottles are incubated at 37° C.+5% CO2. Storage: Cells are harvested by mechanical scraping, washed using PBS, collected in 250 ml Corning polypropylene centrifuge tubes, spun down (1500RPM) and resuspended in dH2O 10% DMSO (final volume per harvest is approximately 50 ml). Protein determination is made using the Biorad DC Assay Kit. Finally, the appropriate volume is aliquoted into a 2 ml Corning Cryovial (10 mg/1-1.5 ml) which is stored at −80° C. Current Lot Data:
Assay Requirement: 0.5 cryovials per 96 well plate (assay volume=200 μl/well) [^3H]-Ligand: [7-methoxy-^3H]-Prazosin: 1.0 nM (NEN, NET-823) • 70-87 Ci/mmol Materials: Phentolamine mesylate (Research Biochemicals Int. #P-131) • 96 well flat bottom plates (Beckman) • Unifilter GF/B Plate (Packard) • Polyethylenimine (Sigma #P-3134) • TomTec or Packard Filtermate 196 Cell Harvesters • Packard TopCount Scintillation Counter Buffers: A: 50 mM Tris HCl; 0.1% ascorbate, pH 7.7 (incubation buffer) • B: 50 mM Tris HCl; pH 7.7 (wash buffer) Procedure: Assay additions are as follows (in the order indicated): • Total Binding=50 μl buffer A+50 μl [^3H]prazosin+100 μl membrane • Nonsp. Bd.=50 μl 10 μM phentolamine+50 μl [^3H]prazosin+100 μl membrane • Test Cpd.=50 μl compound+50 μl [^3H]prazosin+100 μl membrane • Compounds to be evaluated are weighed out to yield a 10 mM stock solution in DMSO in a 24 well polystyrene plate. This is diluted to a 0.5 mM stock in dH2O. Serial dilutions in Buffer A are made from which 50 μl additions to the plate are made in duplicate in order to achieve the final concentrations desired. Typically, one 96 well plate is used to evaluate 11 compounds at 4 concentrations (10^−6-10^−9 M) in duplicate. […]

| Ki [nM] | Structure (SMILES) |
| --- | --- |
| 5.67 | O=C(NCCCCN1CCN(c2csc3cc(F)ccc23)CC1)c1ccc(-c2ccccc2)cc1 [813585A] |

system: not given; assay: not given; conditions: not given

| melting point [°C] | Structure (SMILES) |
| --- | --- |
| 263 to 265 | Cl.c1cc2onc(C3CCNCC3)c2s1 |
